Data on 6 compounds can be found in article PMC5482845 (Scientific Reports, 2017).

Read-outs that look alike come from different tables or passages of the source. Where only a bound is given, the exact number is not on record here.

One assay has as its system atherosclerotic lesions. On the set-up: method as in PMID 17803269, PMID 14718664. As to conditions: orally active; apolipoprotein E knockout mice and low density lipoprotein receptor knockout mice; cited from earlier work.
Assay [1] concerns the target T1, SOAT2 (Homo sapiens, UniProt O75908).
T1 construct: expressed in transfected cells; host or cells: CHO cells (AC29, SOAT-deficient)
T1 sequence (O75908 1-522): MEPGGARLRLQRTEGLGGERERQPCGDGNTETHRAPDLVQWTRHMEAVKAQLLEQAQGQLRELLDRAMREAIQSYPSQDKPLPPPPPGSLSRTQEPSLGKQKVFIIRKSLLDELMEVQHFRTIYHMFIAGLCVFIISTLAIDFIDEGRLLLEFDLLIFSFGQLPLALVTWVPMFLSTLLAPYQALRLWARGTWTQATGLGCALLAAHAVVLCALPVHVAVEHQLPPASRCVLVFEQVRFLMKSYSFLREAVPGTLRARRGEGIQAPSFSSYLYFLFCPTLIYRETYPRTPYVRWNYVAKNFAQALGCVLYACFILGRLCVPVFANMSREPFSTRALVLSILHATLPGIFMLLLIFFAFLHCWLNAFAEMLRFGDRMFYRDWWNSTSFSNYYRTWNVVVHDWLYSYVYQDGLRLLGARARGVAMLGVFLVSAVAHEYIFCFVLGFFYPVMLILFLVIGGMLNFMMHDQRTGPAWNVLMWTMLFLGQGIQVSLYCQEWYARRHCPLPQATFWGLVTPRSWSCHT
The assay can be described thus: [14C]CE synthesis in intact hSOAT2-CHO cells (cell-based assay). The protocol: CHO cells (AC29 cells, SOAT-deficient cells)[37] expressing the SOAT1 or SOAT2 gene from African Green monkeys and humans were cultured by the method described previously.
The assay for the synthesis of [^14C]cholesteryl ester (CE) from [^14C]oleic acid in intact SOAT1- or SOAT2-CHO cells was performed according to our established method.

In assay [2] the target is T2, SOAT2 (Chlorocebus aethiops, UniProt O77759).
T2 construct: expressed in transfected cells; host or cells: CHO cells (AC29, SOAT-deficient)
T2 sequence (O77759 1-526): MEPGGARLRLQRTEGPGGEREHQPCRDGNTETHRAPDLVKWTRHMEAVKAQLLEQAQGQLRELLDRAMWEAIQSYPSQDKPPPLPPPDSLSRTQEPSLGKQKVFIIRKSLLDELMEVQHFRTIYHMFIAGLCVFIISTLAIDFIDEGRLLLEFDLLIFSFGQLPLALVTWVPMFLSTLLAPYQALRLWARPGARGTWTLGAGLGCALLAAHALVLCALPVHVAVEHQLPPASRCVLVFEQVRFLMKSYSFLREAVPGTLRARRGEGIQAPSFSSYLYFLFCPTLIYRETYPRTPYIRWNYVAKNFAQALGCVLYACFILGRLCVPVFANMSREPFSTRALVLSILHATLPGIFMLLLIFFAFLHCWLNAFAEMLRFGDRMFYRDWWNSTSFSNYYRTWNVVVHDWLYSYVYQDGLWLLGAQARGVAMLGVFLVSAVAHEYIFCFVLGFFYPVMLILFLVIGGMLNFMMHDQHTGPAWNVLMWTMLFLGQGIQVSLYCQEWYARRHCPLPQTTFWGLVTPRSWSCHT
As to conditions: enzyme-based assay; African green monkey; cited from earlier work.

The target in assay [3] is T1, SOAT2. Nature of the assay: Enzyme-based SOAT assay, microsomes from hSOAT2-CHO cells (Potter-type homogenizer). It counts as biochemical.
Protocol: An enzyme source from SOAT1-/SOAT2-CHO cells using a Potter-type homogenizer was prepared using our established method[18]. Briefly, SOAT1 or SOAT2-CHO cells (2.0 × 10^8 cells) were homogenized in 5 ml cold buffered sucrose solution (pH 7.2, 100 mM sucrose, 50 mM KCl, 40 mM KH2PO4, and 30 mM EDTA, hereafter referred to as Buffer A) including protease inhibitors (Complete mini (Roche)) in the Potter-type homogenizer. The microsomal fraction was pelleted by centrifugation at 100,000 × g at 4.0 °C for 1.0 h (TLA110, Beckman Coulter), resuspended in the same buffer at a concentration of 5.0 mg protein/ml, and stored at −80 °C until used.
SOAT1 and SOAT2 activities were measured using fractionation prepared as described above as an enzyme source[18]. Briefly, an assay mixture was made containing 500 µg BSA (fatty acid free) and [1-^14C]oleoyl-CoA (20 µM, 3.7 kBq). A test sample (5.0 µl in methanol solution) and microsomes or the ER fractionation of SOAT1- and SOAT2-CHO cells in a total volume of 200 µl Buffer A was incubated at 37 °C. The SOAT reaction was started by adding [1-^14C]oleoyl-CoA. After a 5-min incubation, the reaction was stopped by adding chloroform: methanol (2:1, 1.2 ml). […] After the organic solvent was removed by evaporation, lipids were separated on a TLC plate and the radioactivity of [^14C]CE was measured by our established method[18].
Assay [4] deals with T3, SOAT1 (Chlorocebus aethiops, UniProt O77760).
T3 construct: expressed in transfected cells; host or cells: CHO cells (AC29, SOAT-deficient)
T3 sequence (O77760 1-550): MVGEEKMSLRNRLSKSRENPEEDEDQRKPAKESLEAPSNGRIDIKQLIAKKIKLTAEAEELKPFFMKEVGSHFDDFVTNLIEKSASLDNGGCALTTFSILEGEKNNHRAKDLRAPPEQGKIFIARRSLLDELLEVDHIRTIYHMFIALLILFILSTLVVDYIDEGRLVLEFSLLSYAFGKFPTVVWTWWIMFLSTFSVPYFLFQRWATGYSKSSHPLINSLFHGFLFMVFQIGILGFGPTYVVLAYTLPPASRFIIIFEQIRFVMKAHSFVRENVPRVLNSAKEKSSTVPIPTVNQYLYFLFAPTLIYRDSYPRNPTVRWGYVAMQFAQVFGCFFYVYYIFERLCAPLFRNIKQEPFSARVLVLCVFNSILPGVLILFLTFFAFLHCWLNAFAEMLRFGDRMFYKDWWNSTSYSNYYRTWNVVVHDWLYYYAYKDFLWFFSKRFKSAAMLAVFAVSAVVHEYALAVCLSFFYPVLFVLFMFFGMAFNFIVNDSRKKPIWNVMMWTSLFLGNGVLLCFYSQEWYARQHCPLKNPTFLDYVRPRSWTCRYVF
The assay can be described thus: Interaction of Biotin-Beau-immobilized beads with SOAT1 protein (SDS-PAGE, Western blotting). It counts as binding, African green monkey. The note with it: microsomes from SOAT1-CHO cells, band at approximately 53 kDa, none from AC29 cells or control beads. The source says: The direct interaction between beauveriolide and SOAT1 was investigated. […] Therefore, Biotin-Beau may be employed as a useful bio-probe to investigate interactions between SOAT1 and beauveriolide. Biotin-Beau was attached to acrylamide-based streptavidin beads, and microsomes prepared from SOAT1-CHO cells and AC29 cells (control, SOAT-deficient CHO cells) were applied to the beads. After washing the beads, bound proteins were recovered with Laemmli sample buffer, separated by SDS-PAGE, and stained with the SOAT1 antibody. […] However, no protein was observed from control AC29 cells (lane (1)) or control beads (no Biotin-Beau-carrying beads) (lane (3)).
The microsomal fraction (500 µg protein in 100 µl buffer A) prepared from AC29 (SOAT-deficient CHO cells) or amgSOAT1-CHO cells using the Potter-type homogenizer as described above were mixed with 0.10% (v/v) Triton X-100 on ice for 10 min. Biotin-Beau (10 nmol)[11] was attached to acrylamide-based streptavidin beads (5.0 nmol)[39]. Microsomes (500 µg) prepared from AC29 cells or SOAT1-CHO cells were added to Biotin-Beau-carrying beads and mixed well at 4.0 °C for 1.0 h with a rotator. The beads were collected by centrifugation at 1,000 rpm at 4.0 °C for 5.0 min and washed three times with PBS (300 µl). […] After separation by SDS-PAGE, SOAT1 protein levels was measured as described above.
On the technique in general: Immunoblotting shows a protein as a band on a membrane.

Assay [5] has as its target T3, SOAT1. The note with it: cited from earlier work.
Assay [6] has as its target T3, SOAT1. As to conditions: enzyme-based assay; African green monkey; cited from earlier work.
In assay [7] the target is T4, SOAT1 (Mus musculus, UniProt Q61263).
T4 construct: endogenous in cells; host or cells: primary mouse peritoneal macrophages (ICR mice)
T4 sequence (Q61263 1-540): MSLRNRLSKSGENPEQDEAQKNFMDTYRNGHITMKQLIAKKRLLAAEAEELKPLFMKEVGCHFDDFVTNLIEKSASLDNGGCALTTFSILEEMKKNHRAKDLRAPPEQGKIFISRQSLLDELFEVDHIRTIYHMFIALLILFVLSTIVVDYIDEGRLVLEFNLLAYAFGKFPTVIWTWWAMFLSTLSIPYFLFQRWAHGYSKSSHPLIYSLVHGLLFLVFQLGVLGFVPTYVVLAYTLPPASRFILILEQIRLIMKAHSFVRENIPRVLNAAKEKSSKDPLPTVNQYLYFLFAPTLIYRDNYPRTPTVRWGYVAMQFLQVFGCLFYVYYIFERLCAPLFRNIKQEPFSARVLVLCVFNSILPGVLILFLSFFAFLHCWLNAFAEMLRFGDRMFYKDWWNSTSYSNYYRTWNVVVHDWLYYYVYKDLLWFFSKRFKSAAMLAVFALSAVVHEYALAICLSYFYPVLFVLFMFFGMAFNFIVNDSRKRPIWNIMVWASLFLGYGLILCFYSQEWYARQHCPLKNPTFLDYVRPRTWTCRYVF
The assay can be described thus: Immunofluorescence staining of SOAT1 and Biotin-Beau in mouse peritoneal macrophages. It counts as cell-based. The note with it: Biotin-Beau 9.8 µM. From the text:
Supplementary Experiment Methods
Goat anti-rabbit IgG conjugated to fluorescein isothiocyanate (FITC) was purchased from Sigma-Aldrich (St. Louis, MO). Hank’s balanced salt solution was purchased from Nissui Seiyaku (Tokyo, Japan). Streptavidin conjugated to Alexa Fluor 546 was purchased from Thermo Fisher Scientific (Wa l t h a m , M A). […]
Immunofluorescence staining of SOAT1 and Biotin-Beau in mouse peritoneal […]
Mouse peritoneal macrophages from ICR mice (Japan SLC, Inc., Japan) were prepared as described previously1. Briefly, primary mouse peritoneal macrophages (2.0 x 10^5 cells) with liposomes in each well of a tissue culture chamber (LAB-TEK 8-chamber) were incubated at 37°C in 5.0% CO 2. After a 14-h incubation, cells were washed three times with PBS, fixed with 3.7% formalin for 10 min, and permeabilized with PBS containing 0.10% Tr i t o n X-100 at room temperature for 20 min. […]
After a 1-h incubation, cells were stained with the secondary antibody, a goat anti-rabbit IgG conjugated to FITC ([…]) and streptavidin conjugated to Alexa Fluor 546 (1.0 µg/ml) in blocking buffer, for 1.0 h. Cells were washed three times after the incubation and analyzed with confocal laser scanning microscopy (LSM-510 META, Carl Zeiss, Germany). Images were analyzed with a Zeiss LSM Image Browser (Version 3.5.0.376) […]

Assay [8] has as its target T2, SOAT2. As to conditions: cell-based assay; African green monkey; cited from earlier work.
For a further assay, the system named is SOAT1 and SOAT2. More on the design: method as in PMID 14617738, PMID 17390588, PMID 16820149, PMID 16730694, PMID 16626720. The note with it: cited from earlier work.

Take `CCCC[C@H](C)[C@@H]1CC(=O)N[C@@H](Cc2ccccc2)C(=O)N[C@@H](C)C(=O)N[C@H]([C@@H](C)CC)C(=O)O1` [Beauveriolide III]: in the assay on atherosclerotic lesions, the “effect on atherosclerotic lesions” value is “reducing atherosclerotic lesions in the aortae and hearts”.
Consider `CCCC[C@H](C)[C@@H]1CC(=O)N[C@@H](Cc2ccccc2)C(=O)N[C@@H](C)C(=O)N[C@H](CC(C)C)C(=O)O1` [Beauveriolide I], for which the IC50 (commonly the concentration that inhibits the measured activity by half) on SOAT2 [1] was above 20 µM; at SOAT2 [2], 1.9 µM; against SOAT2 [3], 1.1 µM.
As to `CCCC[C@H](C)[C@@H]1CC(=O)N[C@@H](C(c2ccccc2)c2ccccc2)C(=O)N[C@H](Cn2cc(CNC(=O)CCCCNC(=O)CCCC[C@@H]3SC[C@@H]4NC(=O)N[C@@H]43)nn2)C(=O)N[C@H](C2CCCCC2)C(=O)O1` [Biotin-labeled beauveriolide], the figures for the “binding to SOAT1 protein” value at SOAT1 [4] and on SOAT1 [4] (listed as Biotin-Beau) were “bound to the SOAT1 protein” and “directly binds to the SOAT1 protein”, respectively. Also, the “effect on CE synthesis” value at SOAT1 [5] (cell-based assay using SOAT1-/SOAT2-CHO cells) is listed as “no effect on CE synthesis”. For the same compound, the IC50 at SOAT1 [5] (cell-based assay, African green monkey) is above 10 µM; at SOAT1 [6], 0.6 µM; on SOAT2 [8] it was above 10 µM; at SOAT2 [2], 8 µM. Further, the “SI (type)” value on SOAT1 [6] is given as “SOAT1 (SOAT1-selective type, SI < −1.00)”. Further, the “cellular localization relative to SOAT1” value at SOAT1 [7] is on record as “colocalized with a restricted area of SOAT1 protein distribution”.
Turning to `CSc1cc(C)nc(SC)c1NC(=O)CN1CCN(CCSc2nc3ccccc3[nH]2)CC1` [K-604], in the assay on SOAT1 and SOAT2, the “group of SOAT inhibitor from SI values” is recorded as “SOAT1-selective inhibitors (SOAT1-selective inhibitors (SI, <−1.00))”.
For the compound `CC(C)c1cc(C(C)C)c(CC(=O)NS(=O)(=O)Oc2c(C(C)C)cccc2C(C)C)c(C(C)C)c1` [avasimibe], in the assay on SOAT1 and SOAT2, the “group of SOAT inhibitor from SI values” was “dual inhibitors (dual inhibitors (−1.00 ≤ SI ≤+1.00) inhibiting SOAT1 and SOAT2)”.
With `CCCCCCCCN1CCc2c(C)c(CC(=O)O)c(C)c(NC(=O)C(C)(C)C)c21` [pactimibe], in the assay with SOAT1 and SOAT2, the “group of SOAT inhibitor from SI values” is “dual inhibitors (dual inhibitors (−1.00 ≤ SI ≤+1.00) inhibiting SOAT1 and SOAT2)”.
